In patent US20260184675A1, “CHIRAL ISOMERIC SULFITE COMPOUND AND APPLICATION THEREOF” (Chengdu Hanova BioSciences Co., Ltd, priority 2024, published 2026):

Legend:
[1] = tested on: eggs of Panonychus citri; test: Effect on hatching of eggs of Panonychus citri, leaf disc method; type: in vivo; conditions: 1 ppm
[2] = tested on: eggs of Aleyrodidae; test: Effect on hatching of eggs of Aleyrodidae, leaf disc method; type: in vivo; conditions: 10 ppm
In short: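 Inhibition of Aleyrodidae egg hatching was tested with a leaf disc method at 10 ppm. Egg numbers on each disc were counted under a microscope before treatment. Discs bearing eggs were soaked for 10 seconds in clear water or test solution, removed, and kept under moist conditions. Hatching was checked five days after insecticide delivery and hatched larvae were counted.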

[3] = tested on: Magnaporthe grisea; type: cell-based; conditions: 100 ppm
[4] = tested on: eggs of Spodoptera litura; test: Effect on hatching of eggs of Spodoptera litura, egg piece soaking; type: in vivo; conditions: 500 ppm
In short: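 Egg pieces of about 60 eggs were soaked 10 min in test agent at 500 ppm, blotted, then held singly at 24±1 °C, 80±10% RH, 12:12 L:D. Hatched and unhatched eggs were counted on day 4 to give hatching rate and control effect; 3 replicates.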

[5] = tested on: eggs of Harmonia axyridis; test: Effect on hatching of eggs of Harmonia axyridis, egg card immersion; type: in vivo; conditions: 100 ppm
In short: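 Egg cards (~20 eggs each) dipped 30 s in 100 ppm insecticide, air dried and kept moist at 27° C; 5 cards per treatment, 3 replicates. Hatching assessed 4 days after treatment against pre-treatment egg counts, and control effect calculated by formula.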

CC(COc1ccc(Cl)cc1Cl)OS(=O)OCCF [1′-(R,S)]
inhibitory effect on the hatching of eggs of Panonychus citri (in words) [1]: good inhibitory effects
Hatching rate (%), Replicate 1 ([1]; Panonychus citri eggs, 5 days after delivery, replicate 1, listed as 1′-(R, S)): 0.00%
Hatching rate (%), Replicate 2 ([1]; Panonychus citri eggs, 5 days after delivery, replicate 2, listed as 1′-(R, S)): 0.00%
Hatching rate (%), Replicate 3 ([1]; Panonychus citri eggs, 5 days after delivery, replicate 3, listed as 1′-(R, S)): 0.00%
Number of hatched larvae 5 days after insecticide delivery, Replicate 1 ([1]; Panonychus citri eggs, leaf disc, replicate 1, listed as 1′-(R, S)): 0
Number of hatched larvae 5 days after insecticide delivery, Replicate 2 ([1]; Panonychus citri eggs, leaf disc, replicate 2, listed as 1′-(R, S)): 0
Number of hatched larvae 5 days after insecticide delivery, Replicate 3 ([1]; Panonychus citri eggs, leaf disc, replicate 3, listed as 1′-(R, S)): 0
inhibitory activity on the hatching of eggs of Aleyrodidae (in words) [2]: strong inhibitory activities
Hatching rate (%), Replicate 1 ([2]; Aleyrodidae eggs, 5 days after delivery, replicate 1, listed as 1′-(R, S)): 0.00%
Hatching rate (%), Replicate 2 ([2]; Aleyrodidae eggs, 5 days after delivery, replicate 2, listed as 1′-(R, S)): 0.00%
Hatching rate (%), Replicate 3 ([2]; Aleyrodidae eggs, 5 days after delivery, replicate 3, listed as 1′-(R, S)): 0.00%
Number of hatched larvae 5 days after insecticide delivery, Replicate 1 ([2]; Aleyrodidae eggs, leaf disc, replicate 1, listed as 1′-(R, S)): 0
Number of hatched larvae 5 days after insecticide delivery, Replicate 2 ([2]; Aleyrodidae eggs, leaf disc, replicate 2, listed as 1′-(R, S)): 0
Number of hatched larvae 5 days after insecticide delivery, Replicate 3 ([2]; Aleyrodidae eggs, leaf disc, replicate 3, listed as 1′-(R, S)): 0
inhibitory rate against Magnaporthe grisea (in words) [3]: strong inhibitory rate
Average antifungal rate (%) ([3]; 96-well plate, average of 3 replicates): 100.09%
Antifungal rate of Magnaporthe grisea (%), Replicate 1 ([3]; 96-well plate, replicate 1): 100.26%
Antifungal rate of Magnaporthe grisea (%), Replicate 2 ([3]; 96-well plate, replicate 2): 99.74%
Antifungal rate of Magnaporthe grisea (%), Replicate 3 ([3]; 96-well plate, replicate 3): 100.26%
inhibitory activity on the hatching of eggs of Spodoptera litura (in words) [4]: good inhibitory activities
Hatching rate (%), Replicate 1 ([4]; Spodoptera litura eggs, 4 days after delivery, replicate 1, listed as 1′-(R, S)): 28.33%
Hatching rate (%), Replicate 2 ([4]; Spodoptera litura eggs, 4 days after delivery, replicate 2, listed as 1′-(R, S)): 25.00%
Hatching rate (%), Replicate 3 ([4]; Spodoptera litura eggs, 4 days after delivery, replicate 3, listed as 1′-(R, S)): 20.34%
Number of unhatched larvae 4 days after insecticide delivery, Replicate 1 ([4]; Spodoptera litura eggs, soaked 10 minutes, replicate 1, listed as 1′-(R, S)): 43
Number of unhatched larvae 4 days after insecticide delivery, Replicate 2 ([4]; Spodoptera litura eggs, soaked 10 minutes, replicate 2, listed as 1′-(R, S)): 48
Number of unhatched larvae 4 days after insecticide delivery, Replicate 3 ([4]; Spodoptera litura eggs, soaked 10 minutes, replicate 3, listed as 1′-(R, S)): 47
inhibitory activity on the hatching of eggs of Harmonia axyridis (in words) [5]: strong inhibitory activities
Number of hatched larvae 4 days after insecticide delivery, Replicate 1 ([5]; Harmonia axyridis egg cards, immersed 30 seconds, replicate 1, listed as 1′-(R, S)): 0
Number of hatched larvae 4 days after insecticide delivery, Replicate 2 ([5]; Harmonia axyridis egg cards, immersed 30 seconds, replicate 2, listed as 1′-(R, S)): 0
Number of hatched larvae 4 days after insecticide delivery, Replicate 3 ([5]; Harmonia axyridis egg cards, immersed 30 seconds, replicate 3, listed as 1′-(R, S)): 0
Hatching rate (%), Replicate 1 ([5]; Harmonia axyridis eggs, 4 days after delivery, replicate 1, listed as 1′-(R, S)): 0.00%
Hatching rate (%), Replicate 2 ([5]; Harmonia axyridis eggs, 4 days after delivery, replicate 2, listed as 1′-(R, S)): 0.00%
Hatching rate (%), Replicate 3 ([5]; Harmonia axyridis eggs, 4 days after delivery, replicate 3, listed as 1′-(R, S)): 0.00%
